In ChEMBL document CHEMBL3507680, “University of Dundee, Gates Library screen for HepG2 cell viability”:

Assay: Human HepG2 cell viability assay in 384 well format
Assay type: toxicity, cell-based
Set-up: dose 125 nL, time 70.5 hour; concentration not given beside the values
Settings: HepG2 cells, read-out: Inhibition

With `CCc1cc(=O)[nH]c2nnc(SCC(=O)OC)n12` as the compound, how does the cytotoxicity at 70.5 h read?
The cytotoxicity at 70.5 h was 9.93%.

With `CCCNC(=O)CSc1nnc2[nH]c(=O)cc(CC)n12` as the compound, how does the cytotoxicity at 70.5 h read?
The cytotoxicity at 70.5 h was 11.1%.

For `CCc1cnc2c(c1Nc1ccncc1)c(=O)n(C)c(=O)n2C`, which cytotoxicity at 70.5 h is on record?
The cytotoxicity at 70.5 h was 20.3%.

For `CCCNC(=O)Cn1nc(C(C)C)c2cnn(C(C)(C)C)c2c1=O`, which cytotoxicity at 70.5 h is on record?
Its cytotoxicity at 70.5 h is -0.765%.

Which cytotoxicity at 70.5 h does the source give for `COc1cccc(CNC(=O)CC2CSc3ncc(C)c(=O)n32)c1` (configuration not stated) here?
Its cytotoxicity at 70.5 h is 10.1%.

With `CCOC(=O)c1sc(NC(=O)CN(C)S(C)(=O)=O)c(C#N)c1C` as the compound, how does the cytotoxicity at 70.5 h read?
The cytotoxicity at 70.5 h was 26.2%.

Which cytotoxicity at 70.5 h does the source give for `O=c1nc(SCc2cccnc2)c2c(n1CCO)CCC2` here?
Its cytotoxicity at 70.5 h is -7.99%.

For `O=c1nc(SCc2ccncc2)c2c(n1CCO)CCCC2`, which cytotoxicity at 70.5 h is on record?
The cytotoxicity at 70.5 h was 14.9%.

With `CCCc1nnsc1C(=O)NCC1CCN(c2ccccn2)CC1` as the compound, how does the cytotoxicity at 70.5 h read?
Its cytotoxicity at 70.5 h is -6.19%.

For `O=C(Cn1cnc(-c2ccccc2)cc1=O)Nc1ccncc1`, which cytotoxicity at 70.5 h is on record?
Its cytotoxicity at 70.5 h is -9.96%.

For `COCCNC(=O)CCc1c(C)nn(-c2nc(C)c(C)c(=O)[nH]2)c1C`, which cytotoxicity at 70.5 h is on record?
Its cytotoxicity at 70.5 h is -1.63%.

With `COc1cccc(C(=O)NCC(O)c2cccs2)c1` (configuration not stated) as the compound, how does the cytotoxicity at 70.5 h read?
Its cytotoxicity at 70.5 h is -0.864%.

With `O=C(NCC(O)c1cccs1)c1cccc(Cl)c1` (configuration not stated) as the compound, how does the cytotoxicity at 70.5 h read?
The cytotoxicity at 70.5 h was -2.42%.

For `Cc1ccc(N2CCN(C(=O)COc3nccc(C)n3)CC2)nn1`, which cytotoxicity at 70.5 h is on record?
The cytotoxicity at 70.5 h was 16%.

Which cytotoxicity at 70.5 h does the source give for `O=C(NCC1(CO)CC1)c1cccc2ccccc12` here?
The cytotoxicity at 70.5 h was 2.2%.

Which cytotoxicity at 70.5 h does the source give for `Cc1noc(C)c1CCC(=O)N1CCN(CCn2cccn2)CC1` here?
Its cytotoxicity at 70.5 h is 14.6%.

With `O=S(=O)(NCC1CCN(c2cnccn2)CC1)c1c(F)cccc1F` as the compound, how does the cytotoxicity at 70.5 h read?
Its cytotoxicity at 70.5 h is -9.72%.

Which cytotoxicity at 70.5 h does the source give for `CNc1cc(CCNC(=O)CC(C)C)nc(-c2ccccn2)n1` here?
Its cytotoxicity at 70.5 h is -7.32%.

With `CNc1cc(CCNS(=O)(=O)c2ccccc2)nc(-c2ccccn2)n1` as the compound, how does the cytotoxicity at 70.5 h read?
The cytotoxicity at 70.5 h was -14.6%.

Which cytotoxicity at 70.5 h does the source give for `CNc1cc(CCNC(=O)C2CCCC2)nc(-c2ccccn2)n1` here?
Its cytotoxicity at 70.5 h is -8.09%.

For `CCC1c2cccn2CCN1S(=O)(=O)N1CCOCC1` (configuration not stated), which cytotoxicity at 70.5 h is on record?
Its cytotoxicity at 70.5 h is 11.2%.

For `CCOc1ccc([C@@H]2N[C@H](c3nccs3)Cc3ccsc32)cc1OC`, which cytotoxicity at 70.5 h is on record?
Its cytotoxicity at 70.5 h is -7.07%.

For `COc1cccc([C@@H]2N[C@H](c3nccs3)Cc3ccsc32)c1OC`, which cytotoxicity at 70.5 h is on record?
Its cytotoxicity at 70.5 h is -12.9%.

For `C=Cn1cc(CN2CCN(CC3(c4ccccc4)CC3)CC2)c(C)n1`, which cytotoxicity at 70.5 h is on record?
Its cytotoxicity at 70.5 h is -2.78%.

With `Cc1csc2c(C3CCN(CCOc4ccccc4F)CC3)nc(C)n12` as the compound, how does the cytotoxicity at 70.5 h read?
Its cytotoxicity at 70.5 h is 18.2%.

For `Cc1cc(-c2cc(N)c(=O)n(CC(=O)NC3CCCCC3)n2)c(C)o1`, which cytotoxicity at 70.5 h is on record?
The cytotoxicity at 70.5 h was -15.5%.

Which cytotoxicity at 70.5 h does the source give for `Cn1ccnc1C(O)c1ccccc1N1CCN(Cc2ccsc2)CC1` (configuration not stated) here?
The cytotoxicity at 70.5 h was -5.94%.

Which cytotoxicity at 70.5 h does the source give for `CN1C[C@@H](C(=O)NC(C)(C)C)[C@@]2(COc3ccc(F)cc3C2=O)C1` here?
Its cytotoxicity at 70.5 h is -1.75%.

Which cytotoxicity at 70.5 h does the source give for `O=C(CC1CCCC1)N1CCC(c2noc(-c3ccccn3)n2)CC1` here?
The cytotoxicity at 70.5 h was 6.76%.

Which cytotoxicity at 70.5 h does the source give for `CC(C)(C)C(=O)NCCc1cc2nc(-c3ccncc3)ccn2n1` here?
Its cytotoxicity at 70.5 h is 1.86%.

Which cytotoxicity at 70.5 h does the source give for `CN(C)Cc1cnc(C2CCN(C(=O)c3cccc(Cl)c3)C2)[nH]1` (configuration not stated) here?
The cytotoxicity at 70.5 h was -3.59%.

With `COc1ccccc1CN(C)Cc1ccnc(C2CCCO2)n1` (configuration not stated) as the compound, how does the cytotoxicity at 70.5 h read?
Its cytotoxicity at 70.5 h is -2.34%.

For `Cc1noc(C)c1-c1cc(CCC2CN(CCC(N)=O)CCO2)ncn1` (configuration not stated), which cytotoxicity at 70.5 h is on record?
Its cytotoxicity at 70.5 h is -2.2%.

With `COCCC(=O)N1CCOCC(Cc2ccc3c(ccn3C)c2)C1` (configuration not stated) as the compound, how does the cytotoxicity at 70.5 h read?
The cytotoxicity at 70.5 h was -6.26%.

For `Cc1ccccc1C(=O)N1C[C@@H](O)[C@H](N2CCOCC2)C1`, which cytotoxicity at 70.5 h is on record?
Its cytotoxicity at 70.5 h is -3.66%.

Which cytotoxicity at 70.5 h does the source give for `Cc1cc(N(C)Cc2ncc(-c3ccccc3C(=O)O)s2)ncn1` here?
The cytotoxicity at 70.5 h was 16.7%.

With `CC1(C(=O)N2CCOCC2)CN(CC2CCOCC2)CCO1` (configuration not stated) as the compound, how does the cytotoxicity at 70.5 h read?
The cytotoxicity at 70.5 h was -0.606%.

Which cytotoxicity at 70.5 h does the source give for `c1cc(CN2CCCCC2c2ccc(Nc3cnccn3)nc2)ccn1` (configuration not stated) here?
The cytotoxicity at 70.5 h was -4.05%.

For `CN1CCN(C(=O)CCn2nnc3ccccc32)CC(C(N)=O)C1` (configuration not stated), which cytotoxicity at 70.5 h is on record?
The cytotoxicity at 70.5 h was -1.08%.

With `CNC(=O)C1CN(C(=O)c2ccncc2)CCN(S(C)(=O)=O)C1` (configuration not stated) as the compound, how does the cytotoxicity at 70.5 h read?
The cytotoxicity at 70.5 h was 22.7%.

Which cytotoxicity at 70.5 h does the source give for `Cc1nccc(C2CN(Cc3ccc(-c4ccccc4C(=O)O)o3)C2)n1` here?
The cytotoxicity at 70.5 h was -2.56%.

For `Cc1nc(C(=O)N2CCc3[nH]nc(Nc4ccccc4)c3C2)co1`, which cytotoxicity at 70.5 h is on record?
The cytotoxicity at 70.5 h was -1.67%.

Which cytotoxicity at 70.5 h does the source give for `Cc1ccnc(C2(C)CCCN2S(=O)(=O)c2cccnc2)n1` (configuration not stated) here?
The cytotoxicity at 70.5 h was -3.08%.

Which cytotoxicity at 70.5 h does the source give for `Cc1ccnc(C2(C)CCCN2S(=O)(=O)c2c(C)noc2C)n1` (configuration not stated) here?
The cytotoxicity at 70.5 h was 1.94%.

Which cytotoxicity at 70.5 h does the source give for `Cc1ccnc(C2CN(Cc3ccc(-c4ccccc4C(=O)O)o3)C2)n1` here?
Its cytotoxicity at 70.5 h is -0.616%.

For `O=C(CCn1cccn1)N1CCC(c2nnc(-c3ccccn3)o2)CC1`, which cytotoxicity at 70.5 h is on record?
The cytotoxicity at 70.5 h was 3.01%.

With `O=C(CC1CCCC1)N1CCC(c2nnc(-c3ccccn3)o2)CC1` as the compound, how does the cytotoxicity at 70.5 h read?
Its cytotoxicity at 70.5 h is 31.3%.

For `O=C(c1ccncc1)N1CCc2[nH]nc(Nc3ccccc3)c2C1`, which cytotoxicity at 70.5 h is on record?
Its cytotoxicity at 70.5 h is 21.7%.

For `Cc1cc(C(F)F)nn1C(C)C(=O)NCc1nccn1C` (configuration not stated), which cytotoxicity at 70.5 h is on record?
The cytotoxicity at 70.5 h was -0.123%.

For `CC(C)(C)Nc1c(C2CCN(C(=O)C3CC3)CC2)nc2ccccn12`, which cytotoxicity at 70.5 h is on record?
The cytotoxicity at 70.5 h was 17.8%.

For `Cn1ncc(Cl)c1C(=O)NCCN1CCC(O)(c2ccc(F)cc2)CC1`, which cytotoxicity at 70.5 h is on record?
The cytotoxicity at 70.5 h was 5.46%.

For `O[C@H]1CCN(CCCOc2ccccc2F)C[C@@]12CCCO2`, which cytotoxicity at 70.5 h is on record?
The cytotoxicity at 70.5 h was 18.1%.

For `c1cc(C2CCN(c3cncnc3)CC2)ccn1`, which cytotoxicity at 70.5 h is on record?
The cytotoxicity at 70.5 h was 1.76%.

Which cytotoxicity at 70.5 h does the source give for `CC(C)N1CCC(c2cnc(-c3cn[nH]c3)cn2)CC1` here?
The cytotoxicity at 70.5 h was 2.32%.

Which cytotoxicity at 70.5 h does the source give for `O=C1N[C@H]2OCCC[C@H]2[C@H](c2ccc(C(=O)O)cc2)N1` here?
Its cytotoxicity at 70.5 h is 12.6%.

With `O=C(O)c1ccccc1-n1cc(CN2CCOC(c3cc[nH]n3)C2)cn1` (configuration not stated) as the compound, how does the cytotoxicity at 70.5 h read?
Its cytotoxicity at 70.5 h is -12.9%.

With `CCC(=O)N1CCCCC1c1nc(O)c2c(n1)CN(S(C)(=O)=O)CC2` (configuration not stated) as the compound, how does the cytotoxicity at 70.5 h read?
Its cytotoxicity at 70.5 h is 12.1%.
